Reference: patent publication US11992499B2, “Quinoline derivatives for use in the treatment of inflammation diseases” (ABIVAX, priority 2018, dated 2024)

Columns and labels:
Sugen hypoxia model = assay: Rat Sugen hypoxia model of pulmonary arterial hypertension: mean pulmonary pressure; assay type: in vivo; details: SuHx, 50 mg/kg BID gavage Day 22 to Day 56
Experimental: Animals from Groups 2 to 5 (see Table 10) receive a single subcutaneous injection of sugen (20 mg/kg in 2 mL/kg volume) solution (10 mg/mL) on Day 0 and returned to their cages. Animals from Group 1 receive one subcutaneous injection of DMSO at 2 mL/kg (vehicle for sugen) on Day 0 and returned to their respective cages.
Groups 2-5 are placed in cages for which the controlled air is adjusted to receive a FiO2 equivalent to 0.10 (10%) using a mixture of nitrogen and ambient air controlled by the ventilated cage system. They are kept under these hypoxic conditions for 21 days. While in hypoxia, cages are cleaned and changed once a week, exposing the animals to ambient oxygen levels for less than 10 minutes. They are exposed to ambient oxygen levels from Day 22 to Day 56. Group 1 animals remain in cages exposed to ambient oxygen (normoxic) levels for 56 days. The animals are observed on a daily basis for any changes in their behaviour and general health status.
(§1) Treatment with the compound A, sildenafil or vehicle is administered as of Day 22 (Groups 2-5) as scheduled and described in Table 10. The Groups 2-4 receives a single dose per day. The reference group 5 receives sildenafil twice a day. Food and water are given ad libitum. Daily observation of the behaviour and general health status of the animals is done. Weekly body weight is taken.
Surgical Instrumentation and Measurement of Hemodynamic and Functional Parameters in Efficacy Study Animals • 1. On the selected day of surgery, rats are anaesthetized with a mixture of 2 to 2.5% isoflurane USP (Abbot Laboratories, Montreal, Canada) in oxygen, and placed on a heating pad to maintain body temperature. • 2. Rats are tracheotomized and immediately ventilated by means of a positive-pressure rodent respirator set at ≈10 ml/kg body weight at a frequency of 65-70 strokes/min. • 3. Lead II ECG contact electrodes is placed on the rat to continuously monitor the ECG during the surgical procedure. • 4. A cannula connected to a pressure transducer is inserted into the left femoral artery to measure the arterial blood pressure. • 5. A cannula connected to a pressure transducer is inserted into the right atria through the right jugular vein to measure the right atria pressure. • 6. The heart is exposed through a sternotomy and a 20GA 1.16 in Insyte is introduced into the right ventricle and rapidly hooked up to a saline filled PE-50 catheter connected to a transducer. • 7. Following a few seconds of right ventricular pressure recording, the Insyte is further advanced into the pulmonary artery to allow PAP recording for an additional 60 seconds. • 8. Hemodynamic parameters are recorded continuously for the duration of the procedure or until loss of PAP signal. • 9. Following hemodynamic monitoring, chest cavity is further opened to expose the lung. The muscle over the trachea is dissected away to remove the lungs and heart. Harvested tissue is rinsed with PBS to remove any excess of blood before to be weighed. • 10. For the histology and casting of the lungs, the process is as follows; 1) eight (8) rats per group is reserved to assess the histology of the left lung and is therefore be treated as described in point 12 of this section 8.2; 2) Two (2) rats per group serve to enable quantitative characterization of the three-dimensional vascular structure of the left lung and therefore is treated as described in section 8.3 for casting of the left lung. • 11. For histology, the left lobe is inflated using a 10 mL syringe filled with fixative (10% NBF) with attached blunt tip needle (23 g). Needle tip is inserted into the trachea, held in place with tied suture while another syringe is tied to the pulmonary artery. The lung is inflated gently at physiological pressure (20-25 mmHg) until all lobes are fully, uniformly, and consistently expanded (not allowing fixative to ooze through lung surface). This provides optimal vascular and airway expansion without causing excessive tissue disruption. […]

[1] = tested on: monocrotaline model of pulmonary arterial hypertension; assay: Rat monocrotaline model of pulmonary arterial hypertension: mean pulmonary pressure; assay type: in vivo; details: female rat, MCT, 50 mg/kg BID gavage Day 7 to Day 28, n = 11
Experimental: • 1. The experimental trace to be analyzed is opened in Clampfit. • 2. Right atria pressure is recorded for 1 minute • 3. PAP recorded continuously for at least 1 minute or until loss of signal, is used to extract the mean, diastolic, and systolic pulmonary pressure. • 4. The systemic arterial pressure (SAP) recorded continuously is used to extract the mean, diastolic and systolic arterial pressure. • 5. At the end of the hemodynamic parameters recording, the right and left ventricle including the septum and the lung lobes is excised to determine wet weights. • 6. Each parameter is compiled for each group and presented in bar graphs with appropriate statistical analysis.
The appropriate amount of monocrotaline is weighed and ⅓ of the correct volume of 1.0N HCl is added and mixed to ensure monocrotaline solubilisation. The solution is then neutralized with ⅓ of the correct volume of 1.0 N NaOH. The pH of the solution is checked with a pH indicator paper/strip or an electronic pH meter and adjusted to neutral as necessary; the final volume is completed with water for injection to obtain a solution of 20 mg/mL. The monocrotaline solution is injected subcutaneously, over the shoulders, into the loose skin over the neck, to each rat at 3 mL/kg of body weight (dose is 60 mg/kg).
Compound A was administered as a suspension in the vehicle. To reach the required concentrations, compound A was grounded to a fine powder, using a mortar and pestle, and then mixed with 20% (final volume) of vehicle A1 until a suspension was achieved. 80% of vehicle A2 was then added to the suspension under magnetic stirring.
The appropriate amount of Sildenafil is weighed and appropriate volume of distillated water is added to obtain suspension at 5 mg/mL. The suspension is mixed with a stir bar for 30-60 minutes until a homogenous suspension is achieved. Care is taken to maintain a uniform suspension (stirring continuously) whilst doses are being drawn up into gavage syringes. One gavage syringe is filled at a time and administered before filling the next syringe. The solutions are stored refrigerated at 2 to 8° C. and protected from light. The expiration date is set at 7 days after preparation.
Animals from Groups 2 to 5 (see Table 13) receive a single subcutaneous injection of monocrotaline (60 mg/kg) solution on Day 0 and returned to their cages. Animals from Group 1 receive one subcutaneous injection vehicle for MCT on Day 0 and returned to their respective cages.
as §1, with “Day 7” for “Day 22”, “Table 13.” for “Table 10.”, “2-4 receive” for “2-4 receives”
Surgical Instrumentation and Measurement of Hemodynamic and Functional Parameters in Efficacy Study Animals • 1. On the selected day of surgery, rats are anaesthetized with a mixture of 2 to 2.5% isoflurane USP (Abbot Laboratories, Montreal, Canada) in oxygen, and placed on a heating pad to maintain body temperature. • 2. Rats are tracheotomized and immediately ventilated by means of a positive-pressure rodent respirator set at ≈10 ml/kg bodyweight at a frequency of 65-70 strokes/min. • 3. Lead II ECG contact electrodes is placed on the rat to continuously monitor the ECG during the surgical procedure. • 4. A cannula connected to a pressure transducer is inserted into the left femoral artery to measure the arterial blood pressure. • 5. A cannula connected to a pressure transducer is inserted into the right atria through the right jugular vein to measure the right atria pressure. • 6. The heart is exposed through a sternotomy and a 20GA 1.16 in Insyte is introduced into the right ventricle and rapidly hooked up to a saline filled PE-50 catheter connected to a transducer. • 7. […]

CCCc1nn(C)c2c(=O)[nH]c(-c3cc(S(=O)(=O)N4CCN(C)CC4)ccc3OCC)nc12 [Sildenafil, reference compound]
Mean Pulmonary Pressure (Sugen hypoxia model; female rats): 22.5 mmHg
Mean Pulmonary Pressure (Sugen hypoxia model; male rats): 30.1 mmHg
Mean Pulmonary Pressure [1]: 18.9 mmHg
